PubChem BioAssay AID328 (DTP/NCI, 2004)
Toxic doses and inconclusive results are not listed. How the source made its calls: active means survival T/C of 150% or more; inactive means T/C below 125% in these data.

Tested on: BDF1 mice, P388 leukemia ip, median survival T/C
Test: NCI In Vivo Anticancer Drug Screen. Data for tumor model P388 Leukemia (intraperitoneal) in B6D2F1 (BDF1) mice
Details: endpoint: median survival time, higher = longer survival
Protocol: The antitumor activity of compounds was measured in mice bearing transplantable tumors. Survival or tumor size were measured and the results are expressed as the measurement made in the treated group (T) divided by the measurement made in the vehicle treated control group (C). The tumor model used in this assay is P388 Leukemia (intraperitoneal) in B6D2F1 (BDF1) mice

[1] = dose: 100.0 mg/kg/injection, schedule: Q04DX003 (ip), vehicle: Klucel (hydroxypropylcellulose) (HPC)
[2] = dose: 200.0 mg/kg/injection, schedule: Q04DX003 (ip), vehicle: Klucel (hydroxypropylcellulose) (HPC)
[3] = dose: 400.0 mg/kg/injection, schedule: Q04DX003 (ip), vehicle: Klucel (hydroxypropylcellulose) (HPC)
[4] = dose: 50.0 mg/kg/injection, schedule: Q01DX009 (ip), vehicle: Klucel (hydroxypropylcellulose) (HPC)
[5] = dose: 200.0 mg/kg/injection, schedule: Q01DX009 (ip), vehicle: Klucel (hydroxypropylcellulose) (HPC)
[6] = dose: 50.0 mg/kg/injection, schedule: Q04DX003 (ip), vehicle: saline
[7] = dose: 100.0 mg/kg/injection, schedule: Q01DX009 (ip), vehicle: saline
[8] = dose: 100.0 mg/kg/injection, schedule: Q04DX003 (ip), vehicle: saline
[9] = dose: 200.0 mg/kg/injection, schedule: Q01DX009 (ip), vehicle: saline
[10] = dose: 400.0 mg/kg/injection, schedule: Q01DX009 (ip), vehicle: saline

Measured: T/C

N=N/C(=C\c1c(O)[nH]c2ccccc12)c1ccccc1
inactive: dose: 50.0 mg/kg/injection, schedule: Q04DX003 (ip), vehicle: Klucel (hydroxypropylcellulose) (HPC) 100 % of control | [1] 108 % of control | [2] 108 % of control | [3] 90 % of control

C=C(C)COP(=O)(OCC(=C)C)OCC(=C)C
inactive: [4] 104 % of control | dose: 100.0 mg/kg/injection, schedule: Q01DX009 (ip), vehicle: Klucel (hydroxypropylcellulose) (HPC) 100 % of control | [1] 104 % of control | [5] 109 % of control | [2] 95 % of control | [3] 95 % of control

COc1ccc(NC(=O)CC(C)=O)cc1
inactive: dose: 6.25 mg/kg/injection, schedule: Q01DX009 (ip), vehicle: saline 98 % of control | dose: 12.5 mg/kg/injection, schedule: Q01DX009 (ip), vehicle: saline 91 % of control | dose: 25.0 mg/kg/injection, schedule: Q04DX003 (ip), vehicle: saline 111 % of control | dose: 50.0 mg/kg/injection, schedule: Q01DX009 (ip), vehicle: saline 108 % of control | [6] 102 % of control | [7] 110 % of control | [8] 98 % of control | [9] 106 % of control | dose: 200.0 mg/kg/injection, schedule: Q04DX003 (ip), vehicle: saline 116 % of control | [10] 98 % of control | dose: 400.0 mg/kg/injection, schedule: Q04DX003 (ip), vehicle: saline 93 % of control

CC(C)Sc1nc(N)nc2nc[nH]c12
inactive: dose: 6.25 mg/kg/injection, schedule: Q01DX009 (ip), vehicle: Klucel (hydroxypropylcellulose) (HPC) 100 % of control | dose: 12.5 mg/kg/injection, schedule: Q01DX009 (ip), vehicle: Klucel (hydroxypropylcellulose) (HPC) 105 % of control | dose: 25.0 mg/kg/injection, schedule: Q01DX009 (ip), vehicle: Klucel (hydroxypropylcellulose) (HPC) 100 % of control | [4] 100 % of control | [1] 105 % of control | [2] 105 % of control

O=c1cc(-c2ccccc2)nc2c(Cl)cc(Cl)cn12
inactive: [1] 89 % of control | [2] 100 % of control | [3] 96 % of control

O=C1OC(c2ccccc2)(c2ccccc2)c2ccccc21
inactive: dose: 45.0 mg/kg/injection, schedule: Q01DX009 (ip), vehicle: Klucel (hydroxypropylcellulose) (HPC) 100 % of control | dose: 65.0 mg/kg/injection, schedule: Q01DX009 (ip), vehicle: Klucel (hydroxypropylcellulose) (HPC) 90 % of control | dose: 150.0 mg/kg/injection, schedule: Q01DX009 (ip), vehicle: Klucel (hydroxypropylcellulose) (HPC) 90 % of control | [5] 90 % of control | dose: 400.0 mg/kg/injection, schedule: Q01DX009 (ip), vehicle: Klucel (hydroxypropylcellulose) (HPC) 86 % of control

Cn1cc(N)c2ccccc2c1=O
inactive: dose: 50.0 mg/kg/injection, schedule: Q01DX005 (ip), vehicle: suspension in saline 92 % of control | dose: 100.0 mg/kg/injection, schedule: Q01DX005 (ip), vehicle: suspension in saline 120 % of control

O=C1CCCN1
inactive: dose: 50.0 mg/kg/injection, schedule: Q01DX001 (ip), vehicle: saline 100 % of control | [6] 95 % of control | dose: 100.0 mg/kg/injection, schedule: Q01DX001 (ip), vehicle: saline 118 % of control | [7] 105 % of control | [8] 87 % of control | dose: 200.0 mg/kg/injection, schedule: Q01DX001 (ip), vehicle: saline 100 % of control | [9] 110 % of control | [10] 110 % of control
